BindingDB's records for PubMed 39882870 (University of Modena and Reggio Emilia)

Target: Adenosine receptor A2a (Homo sapiens) (UniProt P29274)
Assay: Negative allosteric modulation of A2AR (unknown origin) expressed in CHO cells in presence of adenosine by CamBio assay

Sequence of Adenosine receptor A2a (Homo sapiens) (P29274 whole entry, looked up): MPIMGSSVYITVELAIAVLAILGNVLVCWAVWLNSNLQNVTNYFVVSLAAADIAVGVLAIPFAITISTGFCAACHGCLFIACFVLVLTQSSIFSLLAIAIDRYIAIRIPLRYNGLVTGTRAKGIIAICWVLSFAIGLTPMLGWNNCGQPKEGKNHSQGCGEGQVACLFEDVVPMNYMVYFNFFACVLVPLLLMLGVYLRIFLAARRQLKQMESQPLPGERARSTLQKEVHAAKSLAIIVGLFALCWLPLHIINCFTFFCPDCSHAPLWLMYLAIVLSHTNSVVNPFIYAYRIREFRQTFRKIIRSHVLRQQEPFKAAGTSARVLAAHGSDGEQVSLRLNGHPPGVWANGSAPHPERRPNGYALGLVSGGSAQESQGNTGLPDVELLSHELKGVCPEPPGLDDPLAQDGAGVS

## N#Cc1c(N)nc(N2CCCCC2)c(C#N)c1-c1cccnc1
  IC50: 9 nM
